The structures appear in SMILES notation.

Experiment [1] concerns the target T1, Oxytocin receptor (Homo sapiens, UniProt P30559).
T1 sequence (P30559 whole entry): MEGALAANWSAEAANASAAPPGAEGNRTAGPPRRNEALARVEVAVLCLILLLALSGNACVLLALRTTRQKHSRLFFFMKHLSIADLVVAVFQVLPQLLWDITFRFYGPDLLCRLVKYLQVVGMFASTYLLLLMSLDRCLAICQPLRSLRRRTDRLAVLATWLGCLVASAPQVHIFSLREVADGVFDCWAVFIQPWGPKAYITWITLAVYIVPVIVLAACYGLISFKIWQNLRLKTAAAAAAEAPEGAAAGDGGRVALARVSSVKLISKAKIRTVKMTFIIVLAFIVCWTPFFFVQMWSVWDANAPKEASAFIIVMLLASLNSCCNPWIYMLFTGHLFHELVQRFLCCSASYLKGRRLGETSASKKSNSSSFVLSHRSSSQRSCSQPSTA
As to the kind of experiment: Agonist activity at human oxytocin receptor expressed in CHO cells assessed as increase in intracellular calcium flux measured for 90 sec by fluo-4 dye based FLIPR assay. It is filed as functional, cell-based.

Experiment [2] has as its target T2, Oxytocin receptor (Homo sapiens) (UniProt P30559).
T2 sequence (whole entry): T1 sequence (P30559 whole entry)
As to the kind of experiment: Intrinsic agonist activity at human oxytocin receptor expressed in CHO cells assessed as increase in intracellular calcium flux measured for 90 sec by fluo-4 dye based FLIPR assay relative to control. In kind it is functional, cell-based. For orientation: Calcium flux is commonly read through the fluorescence of an indicator in the cells.

Experiment [3] deals with T1, Oxytocin receptor. Kind of experiment: Displacement of [3H]8-arginine-vasopressin from human oxytocin receptor expressed in CHO cell membrane incubated for 1 hr by liquid scintillation counting method. In kind it is cell membranes. (In general: In a radioligand displacement assay an active substance lowers the binding of a labelled ligand.)

With `CC[C@H](C)[C@@H]1NC(=O)[C@H](Cc2ccc(O)cc2)NC(=O)CCSSC[C@@H](C(=O)N2CCC[C@H]2C(=O)N[C@@H](CC(C)C)C(=O)N(C)CC(N)=O)N(C)C(=O)[C@H](CC(N)=O)NC(=O)[C@H](CCC(N)=O)NC1=O`, the EC50 (in general, the midpoint of the concentration-response curve) in experiment [1] is 2.41 nM. Besides, the Intrinsic activity in experiment [2] turned out to be 84%.

As for `CC[C@H](C)[C@H]1C(=O)N[C@@H](CCC(N)=O)C(=O)N[C@@H](CC(N)=O)C(=O)N(C)[C@H](C(=O)N2CCC[C@H]2C(=O)N[C@@H](CC(C)C)C(=O)NCC(N)=O)CSSCCC(=O)N[C@@H](Cc2ccc(O)cc2)C(=O)N1C`, in experiment [1], the EC50 was more than 1000 nM.

With `CC[C@H](C)[C@@H]1NC(=O)[C@H](Cc2ccc(O)cc2)N(C)C(=O)CCSSC[C@@H](C(=O)N2CCC[C@H]2C(=O)N[C@@H](CC(C)C)C(=O)NCC(N)=O)N(C)C(=O)[C@H](CC(N)=O)NC(=O)[C@H](CCC(N)=O)NC1=O`, the EC50 in experiment [1] is 7.98 nM. Further, the Intrinsic activity in experiment [2] was 97%.

`CC[C@H](C)[C@@H]1NC(=O)[C@H](Cc2ccc(O)cc2)NC(=O)[C@@H](NC)CSSC[C@@H](C(=O)N2CCC[C@H]2C(=O)N[C@@H](CC(C)C)C(=O)NCC(N)=O)NC(=O)[C@H](CC(N)=O)NC(=O)[C@H](CCC(N)=O)NC1=O`: in experiment [1], the EC50 was determined as 4.77 nM. In addition, the Ki (in general, a measure of affinity in units of concentration, obtained from inhibition or displacement) in experiment [3] is 5.47 nM. In experiment [2], the Intrinsic activity came out at 102%.

Turning to `CC[C@H](C)[C@@H]1NC(=O)[C@H](Cc2ccc(O)cc2)NC(=O)CCSSC[C@@H](C(=O)N2CCC[C@H]2C(=O)N(C)[C@@H](CC(C)C)C(=O)NCC(N)=O)N(C)C(=O)[C@H](CC(N)=O)NC(=O)[C@H](CCC(N)=O)NC1=O`, the EC50 in experiment [1] was found to be 4.23 nM. Besides, the Intrinsic activity in experiment [2] amounted to 86%.

For the compound `CC[C@H](C)[C@@H]1NC(=O)[C@H](Cc2ccc(O)cc2)NC(=O)[C@@H](N)CSSC[C@@H](C(=O)N2CCC[C@H]2C(=O)N[C@@H](CC(C)C)C(=O)N(C)CC(N)=O)N(C)C(=O)[C@H](CC(N)=O)NC(=O)[C@H](CCC(N)=O)NC1=O`, the EC50 in experiment [1] amounted to 10.8 nM. The compound also showed a Ki in experiment [3] of 34.3 nM. In addition, the Intrinsic activity in experiment [2] was 90%.

Regarding `CC[C@H](C)[C@H]1C(=O)N[C@@H](CCC(N)=O)C(=O)N[C@@H](CC(N)=O)C(=O)N(C)[C@H](C(=O)N2CCC[C@H]2C(=O)N[C@@H](CC(C)C)C(=O)NCC(N)=O)CSSC[C@H](N)C(=O)N[C@@H](Cc2ccc(O)cc2)C(=O)N1C`, the EC50 in experiment [1] was 283 nM. For the same compound, the Intrinsic activity in experiment [2] was found to be 94%.

Turning to `CC[C@H](C)[C@@H]1NC(=O)[C@H](Cc2ccc(O)cc2)NC(=O)[C@@H](N)CSSC[C@@H](C(=O)N2CCC[C@H]2C(=O)N(C)[C@@H](CC(C)C)C(=O)N(C)CC(N)=O)NC(=O)[C@H](CC(N)=O)NC(=O)[C@H](CCC(N)=O)NC1=O`, the EC50 in experiment [1] came out at 5.52 nM. The compound further yielded a Ki in experiment [3] of 10.7 nM. Also, the Intrinsic activity in experiment [2] came out at 96%.

For `CC[C@H](C)[C@@H]1NC(=O)[C@H](Cc2ccc(O)cc2)NC(=O)[C@@H](N)CSSC[C@@H](C(=O)N2CCC[C@H]2C(=O)N[C@@H](CC(C)C)C(=O)N(C)CC(N)=O)NC(=O)[C@H](CC(N)=O)NC(=O)[C@H](CCC(N)=O)NC1=O`, the EC50 in experiment [1] came out at 0.47 nM. In addition, the Ki in experiment [3] was determined as 1.32 nM. In addition, the Intrinsic activity in experiment [2] was determined as 102%.

Take `CC[C@H](C)[C@@H]1NC(=O)[C@H](Cc2ccc(O)cc2)NC(=O)[C@@H](N)CSSC[C@@H](C(=O)N2CCC[C@H]2C(=O)N[C@@H](CC(C)C)C(=O)NCC(N)=O)NC(=O)[C@H](CC(N)=O)NC(=O)[C@H](CCC(N)=O)NC1=O`: in experiment [2], the Intrinsic activity amounted to 102%.

Take `CC[C@H](C)[C@@H]1NC(=O)[C@H](Cc2ccc(O)cc2)NC(=O)[C@@H](N)CSSC[C@@H](C(=O)N2CCC[C@H]2C(=O)N[C@@H](CC(C)C)C(=O)NCC(N)=O)NC(=O)[C@H](CC(N)=O)NC(=O)[C@H](CCC(N)=O)N(C)C1=O`: the EC50 in experiment [1] was more than 1000 nM. In experiment [3], this compound yielded a Ki of more than 1010 nM.

Turning to `CC[C@H](C)[C@@H]1NC(=O)[C@H](Cc2ccc(O)cc2)NC(=O)[C@@H](NC)CSSC[C@@H](C(=O)N2CCC[C@H]2C(=O)N[C@@H](CC(C)C)C(=O)NCC(N)=O)N(C)C(=O)[C@H](CC(N)=O)NC(=O)[C@H](CCC(N)=O)NC1=O`, the EC50 in experiment [1] came out at 175 nM. The compound also yielded a Ki in experiment [3] of 98.6 nM. Besides, in experiment [2], the Intrinsic activity is 81%.

Turning to `CC[C@H](C)[C@H]1C(=O)N[C@@H](CCC(N)=O)C(=O)N[C@@H](CC(N)=O)C(=O)N[C@H](C(=O)N2CCC[C@H]2C(=O)N[C@@H](CC(C)C)C(=O)NCC(N)=O)CSSC[C@H](N)C(=O)N[C@@H](Cc2ccc(O)cc2)C(=O)N1C`, the EC50 in experiment [1] came to 14.7 nM. The affinity in experiment [3], expressed as Ki, was 113 nM. In addition, in experiment [2], the Intrinsic activity was determined as 100%.

As for `CC[C@H](C)[C@@H]1NC(=O)[C@H](Cc2ccc(O)cc2)N(C)C(=O)[C@@H](N)CSSC[C@@H](C(=O)N2CCC[C@H]2C(=O)N[C@@H](CC(C)C)C(=O)NCC(N)=O)N(C)C(=O)[C@H](CC(N)=O)NC(=O)[C@H](CCC(N)=O)NC1=O`, the EC50 in experiment [1] is 6.98 nM. Further, the Intrinsic activity in experiment [2] came out at 78%.

In the case of `CC[C@H](C)[C@@H]1NC(=O)[C@H](Cc2ccc(O)cc2)NC(=O)[C@@H](N)CSSC[C@@H](C(=O)N2CCC[C@H]2C(=O)N[C@@H](CC(C)C)C(=O)NCC(N)=O)N(C)C(=O)[C@H](CC(N)=O)NC(=O)[C@H](CCC(N)=O)NC1=O`, the 50% effective concentration (EC50) in experiment [1] is 0.99 nM. Moreover, in experiment [3], the Ki turned out to be 1.05 nM. For the same compound, the Intrinsic activity in experiment [2] amounted to 95%.

Take `CC[C@H](C)[C@@H]1NC(=O)[C@H](Cc2ccc(O)cc2)NC(=O)[C@@H](N)CSSC[C@@H](C(=O)N2CCC[C@H]2C(=O)N[C@@H](CC(C)C)C(=O)NCC(N)=O)NC(=O)[C@H](CC(N)=O)N(C)C(=O)[C@H](CCC(N)=O)NC1=O`: in experiment [1], the EC50 came to 26 nM. This compound also gave a Ki in experiment [3] of 31.5 nM. The Intrinsic activity in experiment [2] stood at 100%.

On to `CC[C@H](C)[C@@H]1NC(=O)[C@H](Cc2ccc(O)cc2)NC(=O)[C@@H](N)CSSC[C@@H](C(=O)N2CCC[C@H]2C(=O)N(C)[C@@H](CC(C)C)C(=O)NCC(N)=O)NC(=O)[C@H](CC(N)=O)NC(=O)[C@H](CCC(N)=O)NC1=O`, for which the EC50 in experiment [1] stood at 0.52 nM. The Ki in experiment [3] amounted to 0.97 nM. Besides, the Intrinsic activity in experiment [2] came to 97%.

Consider `CC[C@H](C)[C@@H]1NC(=O)[C@H](Cc2ccc(O)cc2)NC(=O)CCSSC[C@@H](C(=O)N2CCC[C@H]2C(=O)N[C@@H](CC(C)C)C(=O)NCC(N)=O)N(C)C(=O)[C@H](CC(N)=O)NC(=O)[C@H](CCC(N)=O)NC1=O`, for which the EC50 in experiment [1] is 0.29 nM. In addition, the Intrinsic activity in experiment [2] is 84%.

Turning to `CC[C@H](C)[C@@H]1NC(=O)[C@H](Cc2ccc(O)cc2)N(C)C(=O)[C@@H](N)CSSC[C@@H](C(=O)N2CCC[C@H]2C(=O)N[C@@H](CC(C)C)C(=O)NCC(N)=O)NC(=O)[C@H](CC(N)=O)NC(=O)[C@H](CCC(N)=O)NC1=O`, in experiment [1], the EC50 was 23.9 nM. This compound also gave a Ki in experiment [3] of 6.76 nM. Further, the Intrinsic activity in experiment [2] came out at 98%.

On to `CC[C@H](C)[C@@H]1NC(=O)[C@H](Cc2ccc(O)cc2)NC(=O)[C@@H](N)CSSC[C@@H](C(=O)N2CCC[C@H]2C(=O)N(C)[C@@H](CC(C)C)C(=O)NCC(N)=O)N(C)C(=O)[C@H](CC(N)=O)NC(=O)[C@H](CCC(N)=O)NC1=O`, for which, in experiment [1], the EC50 was 15.6 nM. For the same compound, the affinity in experiment [3], expressed as Ki, was 68.5 nM. Besides, in experiment [2], the Intrinsic activity was 83%.

Regarding `CC[C@H](C)[C@@H]1NC(=O)[C@H](Cc2ccc(O)cc2)NC(=O)CCSSC[C@@H](C(=O)N2CCC[C@H]2C(=O)N(C)[C@@H](CC(C)C)C(=O)N(C)CC(N)=O)NC(=O)[C@H](CC(N)=O)NC(=O)[C@H](CCC(N)=O)NC1=O`, the EC50 in experiment [1] is 0.59 nM. Also, the Intrinsic activity in experiment [2] came to 86%.

Compound `CC[C@H](C)[C@@H]1NC(=O)[C@H](Cc2ccc(O)cc2)NC(=O)CCSSC[C@@H](C(=O)N2CCC[C@H]2C(=O)N[C@@H](CC(C)C)C(=O)NCC(N)=O)NC(=O)[C@H](CC(N)=O)NC(=O)[C@H](CCC(N)=O)NC1=O` gave a Ki in experiment [3] of 0.33 nM. Besides, in experiment [2], the Intrinsic activity came to 106%.

The values are drawn from ChEMBL document CHEMBL3813659 (Bioorg Med Chem, 2016).
